From the NIST ThermoML archive (doi:10.1021/acs.jced.5b01000)
± gives the expanded uncertainty stated by the source.

Columns and labels:
[1] = 99 kPa, Liquid; for viscosity: Capillary tube (Ostwald / Ubbelohde) method; for speed of sound: Frequency=3 MHz, Sing-around technique in a fixed-path interferometer; for mass density: Vibrating tube method
[2] = refractive index (Na D-line) (dimensionless); settings: 99 kPa, Liquid, Standard Abbe refractometry
[3] = refractive index (Na D-line) (dimensionless); xn = mol fraction of the nth substance listed; settings: 99 kPa, Liquid, Standard Abbe refractometry, x2 = 0
[4] = xn = mol fraction of the nth substance listed; settings: 99 kPa, Liquid, x2 = 0; for viscosity: Capillary tube (Ostwald / Ubbelohde) method; for speed of sound: Frequency=3 MHz, Sing-around technique in a fixed-path interferometer; for mass density: Vibrating tube method

SMILES | viscosity ([1]; 283.15 K) | speed of sound ([1]; 283.15 K) | mass density ([1]; 283.15 K) | viscosity ([1]; 298.15 K) | speed of sound ([1]; 298.15 K) | mass density ([1]; 298.15 K) | viscosity ([1]; 313.15 K) | speed of sound ([1]; 313.15 K) | mass density ([1]; 313.15 K) | refractive index ([2]; 283.15 K) | refractive index ([2]; 298.15 K) | refractive index ([2]; 313.15 K) | refractive index ([3]; 283.15 K) | refractive index ([3]; 298.15 K) | refractive index ([3]; 313.15 K) | viscosity ([4]; 283.15 K) | speed of sound ([4]; 283.15 K) | mass density ([4]; 283.15 K) | viscosity ([4]; 298.15 K) | speed of sound ([4]; 298.15 K) | further results
CC(=O)N(C)C [N,N-dimethylethanamide] | 1.168 ± 0.014 mPa·s | 1516.8 ± 1.3 m/s | 950.131 ± 0.21 kg/m3 | 0.9299 ± 0.011 mPa·s | 1453.7 ± 1.3 m/s | 936.289 ± 0.21 kg/m3 | 0.7644 ± 0.0091 mPa·s | 1393.3 ± 1.3 m/s | 922.429 ± 0.21 kg/m3 | 1.44273 ± 0.00036 | 1.43579 ± 0.00036 | 1.42901 ± 0.00036 |  |  |  |  |  |  |  |  | 
CCO [ethanol] | 1.444 ± 0.017 mPa·s | 1194.5 ± 1.2 m/s | 797.878 ± 0.19 kg/m3 | 1.079 ± 0.012 mPa·s | 1143.2 ± 1.2 m/s | 785.054 ± 0.19 kg/m3 | 0.8235 ± 0.0096 mPa·s | 1092.4 ± 1.1 m/s | 772.5 ± 0.19 kg/m3 | 1.36529 ± 0.00035 | 1.35913 ± 0.00035 | 1.35275 ± 0.00035 |  |  |  |  |  |  |  |  | 
CCO [ethanol] + CC(=O)N(C)C |  |  |  |  |  |  |  |  |  |  |  |  | 1.36529 ± 0.00035 | 1.35913 ± 0.00035 | 1.35275 ± 0.00035 | 1.444 ± 0.017 mPa·s | 1194.5 ± 1.2 m/s | 797.878 ± 0.19 kg/m3 | 1.079 ± 0.012 mPa·s | 1143.2 ± 1.2 m/s | mass density ([4]; 298.15 K): 785.054 ± 0.19 kg/m3; viscosity ([4]; 313.15 K): 0.8235 ± 0.0096 mPa·s; speed of sound ([4]; 313.15 K): 1092.4 ± 1.1 m/s; mass density ([4]; 313.15 K): 772.5 ± 0.19 kg/m3
CO [methanol] | 0.677 ± 0.0079 mPa·s | 1152.7 ± 1.2 m/s | 800.707 ± 0.19 kg/m3 | 0.5449 ± 0.0064 mPa·s | 1104.2 ± 1.1 m/s | 786.611 ± 0.19 kg/m3 | 0.4441 ± 0.0053 mPa·s | 1054.5 ± 1.1 m/s | 772.31 ± 0.19 kg/m3 | 1.33282 ± 0.00035 | 1.32636 ± 0.00035 | 1.32013 ± 0.00035 |  |  |  |  |  |  |  |  | 
CO [methanol] + CC(=O)N(C)C |  |  |  |  |  |  |  |  |  |  |  |  | 1.33282 ± 0.00035 | 1.32636 ± 0.00035 | 1.32013 ± 0.00035 | 0.677 ± 0.0079 mPa·s | 1152.7 ± 1.2 m/s | 800.707 ± 0.19 kg/m3 | 0.5449 ± 0.0064 mPa·s | 1104.2 ± 1.1 m/s | mass density ([4]; 298.15 K): 786.611 ± 0.19 kg/m3; viscosity ([4]; 313.15 K): 0.4441 ± 0.0053 mPa·s; speed of sound ([4]; 313.15 K): 1054.5 ± 1.1 m/s; mass density ([4]; 313.15 K): 772.31 ± 0.19 kg/m3
